Assays:
[1] = test system: A549; assay: cells; type: cell-based; settings: Homo sapiens; for GI50 / CC50 / IC (TGI): A549, 48 h, A549, 48 hours exposure, SRB; for GI50: read-out: GI50; for CC50: read-out: LC50 (the source's name); for IC (TGI): read-out: TGI
Excerpt: (§1) The finality of these assays is to interrupt the growth of a “in vitro” tumor cell culture by means of a continued exhibition of the cells to the sample to be testing.
(§2) A colorimetric type of assay, using sulphorhodamine B (SRB) reaction has been adapted for a quantitative measurement of cell growth and viability [following the technique described by Philip Skehan, et al. (1990), New colorimetric cytotoxicity assay for anticancer drug screening, J. Natl. Cancer Inst., 82:1107-1112]
(§3) This form of the assay employs 96 well cell culture microplates of 9 mm diameter (Faircloth, 1988; Mosmann, 1983). Most of the cell lines are obtained from American Type Culture Collection (ATCC) derived from different human cancer types.
(§4) Cells are maintained in RPMI 1640 10% FBS, supplemented with 0.1 g/l penicillin and 0.1 g/l streptomycin sulphate and then incubated at 37° C., 5% CO2 and 98% humidity. For the experiments, cells were harvested from subconfluent cultures using trypsin and resuspended in fresh medium before plating.
(§5) Cells are seeded in 96 well microtiter plates, at 5×10^3 cells per well in aliquots of 195 μl medium, and they are allowed to attach to the plate surface by growing in drug free medium for 18 hours. Afterward, samples are added in aliquots of 5 μl in a ranging from 10 to 10^−8 μg/ml, dissolved in DMSO/EtOH/PBS (0.5:0.5:99). After 48 hours exposure, the antitumor effect are measured by the SRB methodology: cells are fixed by adding 50 μl of cold 50% (wt/vol) trichloroacetic acid (TCA) and incubating for 60 minutes at 4° C. Plates are washed with deionized water and dried. One hundred μl of SRB solution (0.4% wt/vol in 1% acetic acid) is added to each microtiter well and incubated for 10 minutes at room temperature. Unbound SRB is removed by washing with 1% acetic acid. Plates are air dried and bound stain is solubilized with Tris buffer. Optical densities are read on a automated spectrophotometric plate reader at a single wavelength of 490 nm.
(§6) The values for mean+/− SD of data from triplicate wells are calculated. Some parameters for cellular responses can be calculated: GI=growth inhibition, TGI=total growth inhibition (cytostatic effect) and LC=cell killing (cytotoxic effect).

[2] = test system: HT29; assay: cells; type: cell-based; settings: Homo sapiens; for GI50 / IC (TGI) / CC50: HT-29, 48 h, HT29, 48 hours exposure, SRB; for CC50: read-out: LC50 (the source's name)
Excerpt: as §1, §2, §3, §4, §5, §6

| SMILES | IC50 ([1]; A549) | IC50 ([2]; HT-29, HT29) | GI50 [1] | CC50 [1] | IC (TGI) [1] | GI50 [2] | IC (TGI) [2] | CC50 [2] |
| --- | --- | --- | --- | --- | --- | --- | --- | --- |
| COc1c(C)cc2c(c1O)[C@@H]1C3[C@@H]4SC[C@]5(NCCc6c5[nH]c5ccccc65)C(=O)COC[C@@H](c5c6c(c(C)c(OC(C)=O)c54)OCO6)N3[C@@H](C#N)[C@H](C2)N1C (some centres unmarked) [Compound 1] | 1.31 nM | 1.31 nM |  |  |  |  |  |  |
| COc1ccc2[nH]c3c(c2c1)CCN[C@]31CS[C@@H]2c3c(OC(C)=O)c(C)c4c(c3[C@H](COCC1=O)N1C2[C@H]2c3c(cc(C)c(OC)c3O)C[C@@H]([C@@H]1C#N)N2C)OCO4 (some centres unmarked) [Compound 2] |  |  | 0.63 nM | 63000 nM | 6.3 nM | 1.26 nM | 1.26 nM | 63000 nM |
| COc1c(C)cc2c(c1O)[C@@H]1C3[C@@H]4SC[C@]5(NCCc6c5[nH]c5c(OCc7ccccc7)cccc65)C(=O)COC[C@@H](c5c6c(c(C)c(OC(C)=O)c54)OCO6)N3[C@@H](C#N)[C@H](C2)N1C (some centres unmarked) [Compound 3] |  |  | 345 nM | 57500 nM | 3450 nM | 230 nM | 230 nM | 57500 nM |
| COc1c(C)cc2c(c1O)[C@@H]1C3[C@@H]4SC[C@]5(NCCc6c5[nH]c5ccc(OCc7ccccc7)cc65)C(=O)COC[C@@H](c5c6c(c(C)c(OC(C)=O)c54)OCO6)N3[C@@H](C#N)[C@H](C2)N1C (some centres unmarked) [Compound 4] |  |  | 2300 nM | 11500 nM | 6900 nM | 2300 nM | 2300 nM | 11500 nM |
| COc1c(C)cc2c(c1O)[C@@H]1C3[C@@H]4SC[C@]5(NCCc6c5[nH]c5ccc(C)cc65)C(=O)COC[C@@H](c5c6c(c(C)c(OC(C)=O)c54)OCO6)N3[C@@H](C#N)[C@H](C2)N1C (some centres unmarked) [Compound 5] |  |  | 12.9 nM | 12900 nM | 129 nM | 12.9 nM | 12.9 nM | 5140 nM |
| COc1c(C)cc2c(c1O)[C@@H]1C3[C@@H]4SC[C@]5(NCCc6c5[nH]c5ccc(O)cc65)C(=O)COC[C@@H](c5c6c(c(C)c(OC(C)=O)c54)OCO6)N3[C@@H](C#N)[C@H](C2)N1C (some centres unmarked) [Compound 6] |  |  | 5.13 nM | 12800 nM | 51.3 nM | 5.13 nM | 5.13 nM | 5130 nM |
| COc1c(C)cc2c(c1O)[C@@H]1C3[C@@H]4SC[C@]5(NCCc6c5[nH]c5cc(F)ccc65)C(=O)COC[C@@H](c5c6c(c(C)c(OC(C)=O)c54)OCO6)N3[C@@H](C#N)[C@H](C2)N1C (some centres unmarked) [Compound 7] |  |  | 767 nM | 1280 nM | 128 nM | 63.9 nM | 63.9 nM | 1280 nM |
| COc1c(C)cc2c(c1O)[C@@H]1C3[C@@H]4SC[C@]5(C(=O)COC[C@@H](c6c7c(c(C)c(OC(C)=O)c64)OCO7)N3[C@@H](C#N)[C@H](C2)N1C)c1[nH]c2ccc(O)cc2c1CCN5C (some centres unmarked) [Compound 8] |  |  | 2.52 nM | 12600 nM | 10.1 nM | 2.52 nM | 2.52 nM | 5040 nM |
| COc1ccc2c3c([nH]c2c1)[C@@]1(CS[C@@H]2c4c(OC(C)=O)c(C)c5c(c4[C@H](COCC1=O)N1C2[C@H]2c4c(cc(C)c(OC)c4O)C[C@@H]([C@@H]1C#N)N2C)OCO5)NCC3 (some centres unmarked) [Compound 9] |  |  | 25.2 nM | 8820 nM | 101 nM | 378 nM | 378 nM | 12600 nM |
| COc1c(C)cc2c(c1O)[C@@H]1C3[C@@H]4SC[C@]5(NCCc6c5[nH]c5ccc(F)cc65)C(=O)COC[C@@H](c5c6c(c(C)c(OC(C)=O)c54)OCO6)N3[C@@H](C#N)[C@H](C2)N1C (some centres unmarked) [Compound 10] |  |  | 39.1 nM | 12800 nM | 128 nM | 40.3 nM | 12800 nM | 12800 nM |
| COc1c(C)cc2c(c1O)[C@@H]1C3[C@@H]4SC[C@]5(NCCc6c5[nH]c5c(C)cccc65)C(=O)COC[C@@H](c5c6c(c(C)c(OC(C)=O)c54)OCO6)N3[C@@H](C#N)[C@H](C2)N1C (some centres unmarked) [Compound 11] |  |  | 18.9 nM | 129 nM | 50 nM | 30.9 nM | 129 nM | 12900 nM |

— US7763615B2, “Ecteinascidin analogs for use as antitumour agents” (priority 2001, dated 2010)
